pIC50: −log10 of the molar value.
Target: T1, TRB2(h) (Homo sapiens, UniProt Q92519)
T1 construct: purchased Eurofins (KinaseProfiler)
T1 sequence (Q92519 1-343): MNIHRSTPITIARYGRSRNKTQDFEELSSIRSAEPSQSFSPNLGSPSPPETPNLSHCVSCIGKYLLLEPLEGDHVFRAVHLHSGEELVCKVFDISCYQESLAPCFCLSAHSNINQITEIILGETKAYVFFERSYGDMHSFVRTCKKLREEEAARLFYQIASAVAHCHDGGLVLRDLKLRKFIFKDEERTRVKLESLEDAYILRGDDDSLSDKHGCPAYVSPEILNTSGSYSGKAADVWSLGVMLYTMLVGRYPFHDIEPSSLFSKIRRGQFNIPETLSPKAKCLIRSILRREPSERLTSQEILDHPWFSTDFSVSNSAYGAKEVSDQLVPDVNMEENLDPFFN
Test: radiometric kinase assay (KinaseProfiler, Eurofins), TRB2
Type: biochemical
Conditions: in vitro radiometric kinase assay, tested at 1 nM to 10 000 nM, no pre-incubation; read-out: inhibitory activities (IC50 values) TRB2
Method: The compounds were profiled in the radiometric assays (KinaseProfiler, Eurofins).
Briefly, kinases were diluted in the buffer shown below prior to addition to the reaction mix: • CDKL3, TAF1L: 20 mM Tris/HCl pH 8.5, 0.2 mM EDTA, 0.1% β-mercaptoethanol, 0.01% Brij-35, 5% glycerol, 1 mg/ml BSA; • Haspin: 15 mM MOPS, 0.75 mM EDTA, 0.0075% Brij-35, 3.75% Glycerol, 150 mM NaCl, 0.1% β-mercaptoethanol, 1 mg/mLBSA; • CDKL4, CLK2, PIM1, TRB2: […], 1 mM EDTA, 0.01% Brij-35, 5% Glycerol, 0.1% β-mercaptoethanol, 1 mg/mL BSA.
All compounds were prepared to 50x final assay concentration in 100% DMSO. This working stock of the compound was added to the assay well as the first component in the reaction, followed by the remaining components as detailed in the general assay protocols below. There was no pre-incubation step between the compound and the kinase prior to initiation of the reaction.
TRB2(h) was incubated with 8 mM MOPS pH 7.0, 0.2 mM EDTA, 250 µM RRRFRPASPLRGPPK (SEQ ID NO. 1), 10 mM magnesium acetate and γ-^33P-ATP (specific activity and concentration as required). The reaction was initiated by the addition of the Mg/ATP mix. After incubation for 120 minutes at room temperature, the reaction was stopped by the addition of phosphoric acid to a concentration of 0.5%. An aliquot of the stopped reaction was spotted onto a filter and washed four times for 4 minutes in 0.425% phosphoric acid and once in methanol prior to drying and scintillation counting.
Kinase activity data were expressed as the percent remaining kinase activity in tested samples compared to the vehicle (DMSO) reactions. The compounds were tested at the following concentrations: 1 nM, 3 nM, 10 nM, 30 nM, 100 nM, 300 nM, 1000 nM, 3000 nM, and 10 000 nM; IC50 values and curve fits were then obtained.

| SMILES | pIC50 |
| --- | --- |
| Cn1cc(-c2ccc3scc(-c4ccnnc4)c3n2)cn1 [Preparative Example 40, 5-(1-methyl-1H-pyrazol-4-yl)-3-(pyridazin-4-yl)thieno[3,2-b]-pyridine] | 5.52 to 6.30 |
| Cn1cc(-c2ccc3scc(C(=O)c4ccccc4)c3n2)cn1 [Preparative Example 73, (5-(1-methyl-1H-pyrazol-4-yl)thieno[3,2-b]pyridin-3-yl)(phenyl)-methanone] | 5.00 to 5.52 |
| Cc1sc2ccc(-c3cnn(C)c3)nc2c1-c1ccncc1 [Preparative Example 142, 2-methyl-5-(1-methyl-1H-pyrazol-4-yl)-3-(pyridin-4-yl)thieno[3,2-b]pyridine] | 5.52 to 6.30 |
| c1ccc(-c2csc3ccc(-c4cnoc4)nc23)cc1 [Preparative Example 124, 4-(3-phenylthieno[3,2-b]pyridin-5-yl)isoxazole] | 5.00 to 5.52 |
| Cn1cc(-c2ccc3scc(-c4ccnc(C#N)c4)c3n2)cn1 | 6.30 to 7.00 |
| FC(F)(F)n1cc(-c2ccc3scc(-c4ccncc4)c3n2)cn1 [Preparative Example 78, 3-(pyridin-4-yl)-5-(1-(trifluoromethyl)-1H-pyrazol-4-yl)thieno[3,2-b]pyridine] | 5.00 to 5.52 |
| Fc1cc(-c2ccc3scc(-c4ccccc4)c3n2)cc(F)c1F [Preparative Example 122, 3-phenyl-5-(3,4,5-trifluorophenyl)thieno[3,2-b]pyridine] | 5.00 to 5.52 |
| Cn1cc(-c2ccc3scc(-c4cnn(Cc5ccccc5)c4)c3n2)cn1 | 5.52 to 6.30 |

Further lines, results first:

| pIC50 | SMILES |
| --- | --- |
| 5.52 to 6.30 | Cn1nccc1-c1ccc2scc(-c3ccncc3)c2n1 [Preparative Example 90, 5-(1-methyl-1H-pyrazol-5-yl)-3-(pyridin-4-yl)thieno[3,2-b]pyridine] |
| 5.52 to 6.30 | Cn1cc(-c2ccc3scc(-c4ccncc4)c3n2)c(NC(=O)OC(C)(C)C)n1 [Preparative Example 83, tert-butyl(1-methyl-4-(3-(pyridin-4-yl)thieno[3,2-b]pyridin-5-yl)-1H-pyrazol-3-yl)carbamate] |
| 6.30 to 7.00 | Cc1nsc(-c2csc3ccc(-c4cnn(C)c4)nc23)n1 [Preparative Example 71, 3-(3-methyl-1,2,4-thiadiazol-5-yl)-5-(1-methyl-1H-pyrazol-4-yl)thieno[3,2-b]pyridine] |
| 7.00 to 7.70 | c1cc(-c2csc3ccc(Nc4cc[nH]n4)nc23)ccn1 [Preparative Example 101, N-(1H-pyrazol-3-yl)-3-(pyridin-4-yl)thieno[3,2-b]pyridin-5-amine] |
| 6.30 to 7.00 | Cn1cc(-c2ccc3scc(Nc4ccccc4)c3n2)cn1 [Preparative Example 76, 5-(1-methyl-1H-pyrazol-4-yl)-N-phenylthieno[3,2-b]pyridin-3-amine] |
